Measurements: ChEMBL document CHEMBL3351476, “The discovery of I-BET726 (GSK1324726A), a potent tetrahydroquinoline ApoA1 up-regulator and selective BET bromodomain inhibitor” (J Med Chem, 2014)
Converted amounts (≈) assume the structure as drawn.

Experiments:
[1] = molecular target: T1, Bromodomain-containing protein 3 (Homo sapiens, UniProt Q15059); assay: Inhibition of human BRD3 bromodomain 1 by BROMOscan assay
[2] = molecular target: Histone acetyltransferase KAT2A (Homo sapiens, UniProt Q92830); assay: Inhibition of human GCN5 by BROMOscan assay
[3] = molecular target: Bromodomain adjacent to zinc finger domain protein 2B (Homo sapiens, UniProt Q9UIF8); assay: Inhibition of BAZ2B (unknown origin) by BROMOscan assay
[4] = molecular target: Bromodomain testis-specific protein (Homo sapiens, UniProt Q58F21); assay: Inhibition of human BRDT bromodomain 1 by BROMOscan assay
[5] = Volume of distribution at steady state in beagle dog at 1 mg/kg, iv as infusion and 3 mg/kg, po; type: ADME, organism-based, Canis lupus familiaris; conditions: in vivo, read-out: Vdss
[6] = molecular target: ATPase family AAA domain-containing protein 2B (Homo sapiens, UniProt Q9ULI0); assay: Inhibition of human ATAD2B by BROMOscan assay
Chain of ATPase family AAA domain-containing protein 2B (Q9ULI0 whole entry, the tested form may be a part): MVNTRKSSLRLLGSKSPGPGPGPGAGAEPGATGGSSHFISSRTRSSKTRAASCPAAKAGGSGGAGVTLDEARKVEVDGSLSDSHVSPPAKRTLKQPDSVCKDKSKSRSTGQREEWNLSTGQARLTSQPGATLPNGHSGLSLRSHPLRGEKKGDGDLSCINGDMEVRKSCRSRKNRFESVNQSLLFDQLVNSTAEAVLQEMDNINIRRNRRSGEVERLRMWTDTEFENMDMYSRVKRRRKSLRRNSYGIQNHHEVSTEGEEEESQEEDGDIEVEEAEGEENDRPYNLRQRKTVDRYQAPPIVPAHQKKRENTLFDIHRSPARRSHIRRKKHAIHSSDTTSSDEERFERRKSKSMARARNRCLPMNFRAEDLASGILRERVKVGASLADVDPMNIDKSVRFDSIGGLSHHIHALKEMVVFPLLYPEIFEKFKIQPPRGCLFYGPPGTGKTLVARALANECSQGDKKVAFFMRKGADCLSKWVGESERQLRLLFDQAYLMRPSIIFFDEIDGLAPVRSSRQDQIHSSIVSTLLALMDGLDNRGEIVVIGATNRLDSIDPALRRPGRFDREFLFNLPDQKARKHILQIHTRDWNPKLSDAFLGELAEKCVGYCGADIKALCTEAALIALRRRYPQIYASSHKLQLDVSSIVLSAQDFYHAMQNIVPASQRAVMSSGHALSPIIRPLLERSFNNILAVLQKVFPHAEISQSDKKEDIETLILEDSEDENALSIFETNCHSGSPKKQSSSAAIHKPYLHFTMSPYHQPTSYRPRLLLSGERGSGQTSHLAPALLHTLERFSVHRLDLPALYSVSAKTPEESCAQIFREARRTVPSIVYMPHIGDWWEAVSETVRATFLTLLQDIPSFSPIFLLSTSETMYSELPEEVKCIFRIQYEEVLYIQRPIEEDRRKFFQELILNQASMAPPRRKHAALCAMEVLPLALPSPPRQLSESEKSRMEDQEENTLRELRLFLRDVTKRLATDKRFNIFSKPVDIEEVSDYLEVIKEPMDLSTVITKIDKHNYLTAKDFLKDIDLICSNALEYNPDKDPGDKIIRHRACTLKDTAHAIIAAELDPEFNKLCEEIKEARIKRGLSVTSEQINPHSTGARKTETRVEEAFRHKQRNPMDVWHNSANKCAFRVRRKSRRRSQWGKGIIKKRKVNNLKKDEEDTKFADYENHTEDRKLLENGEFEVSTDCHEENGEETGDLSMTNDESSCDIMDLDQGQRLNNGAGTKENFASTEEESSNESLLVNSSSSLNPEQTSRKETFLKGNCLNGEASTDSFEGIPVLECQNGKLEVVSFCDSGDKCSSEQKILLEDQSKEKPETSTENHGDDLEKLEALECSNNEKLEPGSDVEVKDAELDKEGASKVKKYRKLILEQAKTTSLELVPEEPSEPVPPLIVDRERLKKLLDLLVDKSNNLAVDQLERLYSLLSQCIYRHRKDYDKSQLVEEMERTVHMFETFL

[7] = molecular target: Transcription intermediary factor 1-alpha (Homo sapiens, UniProt O15164); assay: Inhibition of human TIF1alpha bromodomain by BROMOscan assay
[8] = Volume of distribution at steady state in rat at 1 mg/kg, iv as infusion and 3 mg/kg, po; type: ADME, organism-based; conditions: in vivo, read-out: Vdss
[9] = molecular target: Bromodomain-containing protein 7 (Homo sapiens, UniProt Q9NPI1); assay: Inhibition of human BRD7 by BROMOscan assay
[10] = molecular target: Bromodomain-containing protein 2 (Homo sapiens, UniProt P25440); assay: Inhibition of human BRD2 bromodomain 2 by BROMOscan assay
[11] = Blood clearance in beagle dog at 1 mg/kg, iv as infusion and 3 mg/kg, po; type: ADME, organism-based, Canis lupus familiaris; conditions: whole blood
[12] = molecular target: Nucleosome-remodeling factor subunit BPTF (Homo sapiens, UniProt Q12830); assay: Inhibition of human BPTF by BROMOscan assay
[13] = molecular target: Cytochrome P450 2C9 (Homo sapiens, UniProt P11712); assay: Inhibition of CYP2C9 (unknown origin) expressed in Escherichia coli bactosomes using 7-methoxy-4-trifluoromethylcoumarin-3-acetic acid as substrate after 10 mins by fluorescence assay; type: ADME
[14] = molecular target: Cytochrome P450 2D6 (Homo sapiens, UniProt P10635); assay: Inhibition of recombinant human CYP2D6 expressed in Escherichia coli bactosomes using 4-methylaminomethyl-7-methoyxycoumarin as substrate after 10 mins by fluorescence assay; type: ADME
[15] = molecular target: CREB-binding protein (Homo sapiens, UniProt Q92793); assay: Binding affinity to CREBBP (unknown origin) by ITC method
[16] = AUC (0 to t) in Cynomolgus monkey at 2 mg/kg, po; type: ADME, organism-based, Macaca fascicularis; set-up: dose 2 mg/kg, route oral; conditions: plasma
[17] = molecular target: Transcription initiation factor TFIID subunit 1 (Homo sapiens, UniProt P21675); assay: Inhibition of human TAF1 by BROMOscan assay
[18] = Terminal half life in Balb/c mouse at 10 mg/kg, iv as bolus dose; type: ADME, organism-based; set-up: dose 10 mg/kg, route intravenous; conditions: in vivo, read-out: beta t1/2 (converted)
[19] = Solubility of the compound in fasted state simulated intestinal fluid at 125 ug/ml after 16 hrs by HPLC analysis; type: ADME; conditions: fasted state simulated intestinal fluid
[20] = molecular target: Cytochrome P450 3A4 (Homo sapiens, UniProt P08684); assay: Time-dependent inhibition of human recombinant CYP3A4 expressed in Escherichia coli bactosomes using diethoxyfluorescein as substrate by fluorescence assay; type: ADME; conditions: recombinant enzyme
Chain of Cytochrome P450 3A4 (P08684 whole entry): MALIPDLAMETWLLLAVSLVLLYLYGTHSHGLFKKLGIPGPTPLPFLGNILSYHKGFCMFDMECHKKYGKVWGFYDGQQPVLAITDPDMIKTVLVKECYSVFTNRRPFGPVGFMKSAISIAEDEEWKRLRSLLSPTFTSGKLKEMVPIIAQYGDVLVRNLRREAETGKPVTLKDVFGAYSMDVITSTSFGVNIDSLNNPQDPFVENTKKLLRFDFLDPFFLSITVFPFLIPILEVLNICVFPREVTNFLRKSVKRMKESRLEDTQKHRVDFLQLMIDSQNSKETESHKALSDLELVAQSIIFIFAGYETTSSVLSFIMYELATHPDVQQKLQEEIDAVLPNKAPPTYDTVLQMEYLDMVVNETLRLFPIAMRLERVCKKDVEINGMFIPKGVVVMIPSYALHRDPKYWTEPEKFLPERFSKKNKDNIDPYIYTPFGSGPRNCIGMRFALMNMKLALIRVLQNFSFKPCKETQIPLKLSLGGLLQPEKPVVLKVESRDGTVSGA

[21] = system: Blood; assay: Inhibition of LPS-induced IL6 production in human whole blood after 24 hrs by immunoassay; type: functional, tissue-based
[22] = Fraction unbound in dog blood by rapid equilibrium dialysis method; type: ADME, tissue-based, Canis lupus familiaris
[23] = molecular target: T1, Bromodomain-containing protein 3; assay: Binding affinity to His6-tagged BRD3 (1 to 475 aa) (unknown origin) by SPR method
[24] = Oral bioavailability in Cynomolgus monkey at 2 mg/kg; type: ADME, organism-based, Macaca fascicularis; conditions: in vivo
[25] = molecular target: Histone acetyltransferase p300 (Homo sapiens, UniProt Q09472); assay: Inhibition of human EP300 by BROMOscan assay
Chain of Histone acetyltransferase p300 (Q09472 whole entry): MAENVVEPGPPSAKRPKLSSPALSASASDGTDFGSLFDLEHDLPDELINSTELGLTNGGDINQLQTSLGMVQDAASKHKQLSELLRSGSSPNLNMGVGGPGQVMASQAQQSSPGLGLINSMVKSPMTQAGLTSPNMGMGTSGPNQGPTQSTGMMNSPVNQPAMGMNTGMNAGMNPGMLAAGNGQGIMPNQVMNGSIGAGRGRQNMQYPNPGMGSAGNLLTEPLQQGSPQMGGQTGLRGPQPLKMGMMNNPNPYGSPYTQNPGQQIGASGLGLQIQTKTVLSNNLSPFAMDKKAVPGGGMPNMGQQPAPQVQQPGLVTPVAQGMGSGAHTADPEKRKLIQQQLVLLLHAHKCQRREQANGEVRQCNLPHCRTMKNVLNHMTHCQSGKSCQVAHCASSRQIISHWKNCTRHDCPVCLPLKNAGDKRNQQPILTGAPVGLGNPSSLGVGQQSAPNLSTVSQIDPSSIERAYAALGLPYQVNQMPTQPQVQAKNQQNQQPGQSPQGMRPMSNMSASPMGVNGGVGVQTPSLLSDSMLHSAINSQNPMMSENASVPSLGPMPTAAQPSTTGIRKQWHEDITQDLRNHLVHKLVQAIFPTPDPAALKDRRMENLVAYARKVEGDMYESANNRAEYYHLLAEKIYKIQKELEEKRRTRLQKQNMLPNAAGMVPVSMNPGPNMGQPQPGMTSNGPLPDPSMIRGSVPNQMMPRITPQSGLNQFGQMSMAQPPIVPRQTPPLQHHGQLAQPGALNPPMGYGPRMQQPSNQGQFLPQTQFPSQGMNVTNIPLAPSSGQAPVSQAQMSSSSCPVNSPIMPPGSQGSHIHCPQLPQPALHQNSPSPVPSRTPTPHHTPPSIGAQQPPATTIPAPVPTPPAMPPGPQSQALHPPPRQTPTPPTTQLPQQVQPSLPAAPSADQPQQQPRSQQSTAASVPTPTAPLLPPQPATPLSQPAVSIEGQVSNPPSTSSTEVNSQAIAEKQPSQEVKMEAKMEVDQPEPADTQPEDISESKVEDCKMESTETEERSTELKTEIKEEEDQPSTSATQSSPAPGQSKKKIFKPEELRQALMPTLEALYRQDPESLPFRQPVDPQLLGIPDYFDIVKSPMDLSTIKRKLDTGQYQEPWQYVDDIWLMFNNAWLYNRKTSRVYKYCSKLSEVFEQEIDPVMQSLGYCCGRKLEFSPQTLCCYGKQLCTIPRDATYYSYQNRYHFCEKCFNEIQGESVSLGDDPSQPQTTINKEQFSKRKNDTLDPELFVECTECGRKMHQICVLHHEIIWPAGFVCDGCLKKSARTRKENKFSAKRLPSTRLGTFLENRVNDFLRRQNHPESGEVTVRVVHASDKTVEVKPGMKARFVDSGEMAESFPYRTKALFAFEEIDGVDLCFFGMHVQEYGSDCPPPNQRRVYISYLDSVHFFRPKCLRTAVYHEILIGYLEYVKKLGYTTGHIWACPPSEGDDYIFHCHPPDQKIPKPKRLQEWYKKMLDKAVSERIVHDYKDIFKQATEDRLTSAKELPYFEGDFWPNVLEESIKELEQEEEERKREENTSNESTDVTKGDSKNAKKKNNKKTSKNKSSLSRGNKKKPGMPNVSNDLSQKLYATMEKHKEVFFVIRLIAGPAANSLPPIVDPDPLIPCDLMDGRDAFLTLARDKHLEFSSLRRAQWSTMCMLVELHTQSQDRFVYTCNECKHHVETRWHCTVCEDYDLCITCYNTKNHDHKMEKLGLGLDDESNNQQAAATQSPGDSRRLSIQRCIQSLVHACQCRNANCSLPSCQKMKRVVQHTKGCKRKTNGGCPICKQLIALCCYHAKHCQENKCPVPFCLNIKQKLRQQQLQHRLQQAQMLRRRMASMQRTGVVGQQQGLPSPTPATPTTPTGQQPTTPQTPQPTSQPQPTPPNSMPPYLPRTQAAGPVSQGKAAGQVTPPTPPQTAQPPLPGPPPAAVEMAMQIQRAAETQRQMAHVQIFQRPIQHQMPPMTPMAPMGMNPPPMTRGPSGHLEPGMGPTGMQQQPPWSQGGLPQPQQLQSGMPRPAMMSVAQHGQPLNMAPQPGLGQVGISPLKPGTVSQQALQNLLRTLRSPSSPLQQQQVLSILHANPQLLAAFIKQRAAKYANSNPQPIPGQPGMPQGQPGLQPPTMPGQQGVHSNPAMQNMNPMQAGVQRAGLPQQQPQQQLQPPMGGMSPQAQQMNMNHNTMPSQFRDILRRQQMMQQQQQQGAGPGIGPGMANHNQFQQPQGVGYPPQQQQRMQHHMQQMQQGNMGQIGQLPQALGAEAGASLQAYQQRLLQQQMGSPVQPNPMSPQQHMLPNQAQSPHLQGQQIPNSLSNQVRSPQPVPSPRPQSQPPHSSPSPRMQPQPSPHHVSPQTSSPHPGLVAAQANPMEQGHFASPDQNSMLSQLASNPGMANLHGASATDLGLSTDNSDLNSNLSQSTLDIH

T1 sequence (Q15059 whole entry): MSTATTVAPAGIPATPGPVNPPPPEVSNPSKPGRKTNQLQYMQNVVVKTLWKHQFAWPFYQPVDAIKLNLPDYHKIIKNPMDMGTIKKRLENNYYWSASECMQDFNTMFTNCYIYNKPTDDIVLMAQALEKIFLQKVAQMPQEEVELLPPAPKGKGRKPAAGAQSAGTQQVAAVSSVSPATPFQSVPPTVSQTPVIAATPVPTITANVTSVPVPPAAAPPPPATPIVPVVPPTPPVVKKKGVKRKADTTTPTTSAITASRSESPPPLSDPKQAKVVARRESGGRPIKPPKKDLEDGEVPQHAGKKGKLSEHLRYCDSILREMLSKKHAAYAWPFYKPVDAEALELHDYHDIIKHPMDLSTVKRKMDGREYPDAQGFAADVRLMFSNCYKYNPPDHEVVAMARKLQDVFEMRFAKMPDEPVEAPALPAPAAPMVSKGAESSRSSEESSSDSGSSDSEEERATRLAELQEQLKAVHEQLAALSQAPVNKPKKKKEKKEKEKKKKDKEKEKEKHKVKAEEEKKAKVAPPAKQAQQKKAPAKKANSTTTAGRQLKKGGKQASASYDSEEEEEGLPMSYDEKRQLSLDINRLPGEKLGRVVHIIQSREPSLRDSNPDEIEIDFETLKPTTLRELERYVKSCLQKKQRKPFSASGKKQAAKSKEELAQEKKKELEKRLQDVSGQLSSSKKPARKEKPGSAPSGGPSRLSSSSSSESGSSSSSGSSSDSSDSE

What does the source list for `CC(=O)N1c2ccc(-c3ccc(C(=O)O)cc3)cc2[C@H](Nc2ccc(Cl)cc2)C[C@@H]1C`?
IC50 [1]: 0.000631 µM; IC50 [2]: > 0.316 µM; IC50 [3]: > 31.6 µM; IC50 [4]: 31.6 µM; Vd [5]: 0.8 L/kg; IC50 [6]: > 31.6 µM; IC50 [7]: 10 µM; Vd [8]: 2 L/kg; IC50 [9]: > 0.00126 µM; IC50 [10]: 0.00316 µM; clearance [11]: 6 mL/min/kg; IC50 [12]: > 31.6 µM; IC50 [13]: 13 µM; IC50 [14]: > 33 µM; Kd [15]: 6.3 µM; AUC(0-t) [16]: 11000 ng·h/mL; IC50 [17]: 31.6 µM; half-life [18]: 3.6 h; solubility at 16 h [19]: 106 µg/mL (≈ 244 µM); inhibition (INH) [20]: Active; IC50 [21]: 0.398 µM; fraction unbound [22]: 0.065; Kd [23]: 0.02 µM; bioavailability [24]: 103%; IC50 [25]: 31.6 µM
